Experimental data published in patent US9445594B2, “Molecules having certain pesticidal utilities, intermediates, compositions, and processes, related thereto” (priority 2014, dated 2016).

How the values were obtained:
Format in all cases: in vivo
[1] = system: Beet Armyworm (Spodoptera exigua, LAPHEG) ("BAW"); experiment: Bioassays on BAW, 128-well diet tray assay; conditions: 168 h, second instar larvae, 50 μg/cm^2 on artificial diet, 25° C., five to seven days, average of eight wells, read-out: BAW % Control (or Mortality) rating
How it was run: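 One to five second-instar larvae were placed per well on artificial diet surface-treated with 50 μg/cm^2 compound from 90:10 acetone-water, dried before infestation. Trays were held at 25 °C, 14:10 light-dark, for five to seven days. Percent mortality was averaged over eight wells.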

[2] = system: Cabbage Looper (Trichoplusia ni, TRIPNI) ("CL"); experiment: Bioassays on CL, 128-well diet tray assay; conditions: 168 h, second instar larvae, 50 μg/cm^2 on artificial diet, 25° C., five to seven days, average of eight wells, read-out: CL % Control (or Mortality) rating
How it was run: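 Second-instar larvae (one to five per well) on artificial diet surface-treated with 50 μg/cm^2 compound in 90:10 acetone-water, eight wells per treatment. Held at 25° C., 14:10 light-dark for five to seven days. Percent mortality scored per well and averaged over the eight wells.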

[3] = system: Green Peach Aphid (Myzus persicae, MYZUPE) ("GPA"); experiment: Bioassays on GPA, foliar spray of infested cabbage seedlings; conditions: 72 h, 200 ppm spray on cabbage seedlings, graded after three days, Abbott corrected % control, read-out: GPA % Control (or Mortality) rating
Procedure: Certain molecules disclosed in this document were tested against GPA using procedures described in the following example. In the reporting of the results, the “GPA Rating Table” was used (See Table Section).
Cabbage seedlings grown in 3-inch pots, with 2-3 small (3-5 cm) true leaves, were used as test substrate. The seedlings were infested with 20-50 GPA (wingless adult and nymph stages) one day prior to chemical application. Four pots with individual seedlings were used for each treatment. Test compounds (2 mg) were dissolved in 2 mL of acetone/methanol (1:1) solvent, forming stock solutions of 1000 ppm test compound. The stock solutions were diluted 5× with 0.025% Tween 20 in water to obtain the solution at 200 ppm test compound. A hand-held aspirator-type sprayer was used for spraying a solution to both sides of […] leaves until runoff. Reference plants (solvent check) were sprayed with the diluent only containing 20% by volume of acetone/methanol (1:1) solvent. Treated plants were held in a holding room for three days at approximately 25° C. and ambient relative humidity (RH) prior to grading. Evaluation was conducted by counting the number of live aphids per plant under a microscope. Percent Control was measured by using Abbott's correction formula (W. S. Abbott, “A Method of Computing the Effectiveness of an Insecticide” J. Econ. Entomol. 18 (1925), pp. 265-267) as follows. Corrected % Control=100*(X−Y)/X • where • X=No. of live aphids on solvent check plants and • Y=No. of live aphids on treated plants

[4] = system: Yellow Fever Mosquito (Aedes aegypti, AEDSAE) ("YFM"); experiment: Bioassays on YFM, 96-well plate larval assay; conditions: about 1 day-old larvae, from 4000 ppm DMSO master plate diluted, room temperature, scored after 3 days
How it was run: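 Compounds from 4000 ppm DMSO master plates, diluted in 90:10 water:acetone, dispensed into 96-well plates, six replicates. About 1-day-old larvae added in liver-powder water. Wells covered, held 3 days at room temperature, then scored for mortality.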

For `CSc1ccccc1-c1cccnc1NC(=S)Nc1ccc(-c2ncn(-c3ccc(OC(F)(F)F)cc3)n2)cc1` [F22, 1-(3-(2-(Methylthio)phenyl)pyridin-2-yl)-3-(4-(1-(4-(trifluoromethoxy)phenyl)-1H-1,2,4-triazol-3-yl)phenyl)thiourea], the mortality at 50 µg/cm2 [1] was 0 to 50%, the mortality at 50 µg/cm2 [2] was 50 to 100% and the mortality at 200 ppm [3] was 0 to 80%. For the same compound, the “YFM % Control (or Mortality) rating” value [4] was “D (No activity noticed in this bioassay)”.
In the case of `O=C(Nc1ccc(-c2ncn(-c3ccc(OC(F)(F)F)cc3)n2)cc1)Nc1ncccc1-c1cccnc1` [F66, 1-([3,3′-Bipyridin]-2-yl)-3-(4-(1-(4-(trifluoromethoxy)phenyl)-1H-1,2,4-triazol-3-yl)phenyl)urea], the mortality at 50 µg/cm2 [1] is reported as 50 to 100%, the mortality at 50 µg/cm2 [2] is reported as 50 to 100% and the mortality at 200 ppm [3] is reported as 0 to 80%. For the same compound, the “YFM % Control (or Mortality) rating” value [4] was “D (No activity noticed in this bioassay)”.
In the case of `COc1ccc(NC(=O)NCCCc2ccc(-c3ncn(-c4ccc(OC(F)(F)F)cc4)n3)cc2)c(C)c1` [P3, 1-(4-Methoxy-2-methylphenyl)-3-(3-(4-(1-(4-(trifluoromethoxy)phenyl)-1H-1,2,4-triazol-3-yl)phenyl)propyl)urea], the mortality at 50 µg/cm2 [1] is reported as 0%, the mortality at 50 µg/cm2 [2] is reported as 0% and the mortality at 200 ppm [3] is reported as 0%. For the same compound, the “YFM % Control (or Mortality) rating” value [4] was “D (No activity noticed in this bioassay)”.
`CCc1ccccc1-c1ccccc1NC(=S)Nc1ccc(-c2ncn(-c3ccc(OC(F)(F)F)cc3)n2)cc1` [F4, 1-(2′-Ethyl-[1,1′-biphenyl]-2-yl)-3-(4-(1-(4-(trifluoromethoxy)phenyl)-1H-1,2,4-triazol-3-yl)phenyl)thiourea] was tested, and the mortality at 50 µg/cm2 [1] was 50 to 100%, the mortality at 50 µg/cm2 [2] was 50 to 100% and the mortality at 200 ppm [3] was 0%. For the same compound, the “YFM % Control (or Mortality) rating” value [4] was “A (80-100)”.
`O=C(NCCCc1ccc(-c2ncn(-c3ccc(OC(F)(F)F)cc3)n2)cc1)Nc1cccc(-c2ccccc2)c1` [P7, 1-([1,1′-biphenyl]-3-yl)-3-(3-(4-(1-(4-(trifluoromethoxy)phenyl)-1H-1,2,4-triazol-3-yl)phenyl)propyl)urea] was tested, and the mortality at 50 µg/cm2 [1] was 0%, the mortality at 50 µg/cm2 [2] was 0% and the mortality at 200 ppm [3] was 0%. For the same compound, the “YFM % Control (or Mortality) rating” value [4] was “D (No activity noticed in this bioassay)”.
`Cc1cc(C)cc(NC(=O)NCCCc2ccc(-c3ncn(-c4ccc(OC(F)(F)F)cc4)n3)cc2)c1` [P1, 1-(3,5-Dimethylphenyl)-3-(3-(4-(1-(4-(trifluoromethoxy)phenyl)-1H-1,2,4-triazol-3-yl)phenyl)propyl)urea] was tested, and the mortality at 50 µg/cm2 [1] was 0%, the mortality at 50 µg/cm2 [2] was 0% and the mortality at 200 ppm [3] was 0%. For the same compound, the “YFM % Control (or Mortality) rating” value [4] was “D (No activity noticed in this bioassay)”.
For `Cc1ccccc1-c1cccnc1NC(=S)Nc1ccc(-c2ncn(-c3ccc(OC(F)(F)F)cc3)n2)cc1` [F11, 1-(3-(o-Tolyl)pyridin-2-yl)-3-(4-(1-(4-(trifluoromethoxy)phenyl)-1H-1,2,4-triazol-3-yl)phenyl)thiourea], the mortality at 50 µg/cm2 [1] was 50 to 100%, the mortality at 200 ppm [3] was 0 to 80% and the “YFM % Control (or Mortality) rating” value [4] was “D (No activity noticed in this bioassay)”.
`CSc1ccccc1-c1ccccc1NC(=O)Nc1ccc(-c2ncn(-c3ccc(OC(F)(F)F)cc3)n2)cc1` [F60, 1-(2′-(Methylthio)-[1,1′-biphenyl]-2-yl)-3-(4-(1-(4-(trifluoromethoxy)phenyl)-1H-1,2,4-triazol-3-yl)phenyl)urea] showed a mortality at 50 µg/cm2 [1] of 50 to 100%, a mortality at 50 µg/cm2 [2] of 50 to 100% and a mortality at 200 ppm [3] of 0 to 80%. For the same compound, the “YFM % Control (or Mortality) rating” value [4] was “A (80-100)”.
With `CCCc1ccccc1NC(=O)Nc1ccc(-c2ncn(-c3ccc(OC(F)(F)F)cc3)n2)cc1` [F37, 1-(2-propylphenyl)-3-(4-(1-(4-(trifluoromethoxy)phenyl)-1H-1,2,4-triazol-3-yl)phenyl)urea] the mortality at 50 µg/cm2 [1] was 0 to 50%, the mortality at 50 µg/cm2 [2] was 50 to 100% and the mortality at 200 ppm [3] was 0 to 80%. The “YFM % Control (or Mortality) rating” value [4] was “B (More than 0 - Less than 80)”.
Compound `O=C(Nc1ccc(-c2ncn(-c3ccc(OC(F)(F)F)cc3)n2)cc1)Nc1ccccc1N1CCOCC1` [F69, 1-(2-Morpholinophenyl)-3-(4-(1-(4-(trifluoromethoxy)phenyl)-1H-1,2,4-triazol-3-yl)phenyl)urea] has a mortality at 50 µg/cm2 [1] of 50 to 100%, a mortality at 50 µg/cm2 [2] of 50 to 100% and a mortality at 200 ppm [3] of 0%. The “YFM % Control (or Mortality) rating” value [4] was “A (80-100)”.
Compound `CCc1ccccc1-c1cccnc1NC(=O)Nc1ccc(-c2ncn(-c3ccc(OC(F)(F)F)cc3)n2)cc1` [F16, 1-(3-(2-Ethylphenyl)pyridin-2-yl)-3-(4-(1-(4-(trifluoromethoxy)phenyl)-1H-1,2,4-triazol-3-yl)phenyl)urea] has a mortality at 50 µg/cm2 [1] of 50 to 100%, a mortality at 50 µg/cm2 [2] of 50 to 100% and a mortality at 200 ppm [3] of 0 to 80%. For the same compound, the “YFM % Control (or Mortality) rating” value [4] was “D (No activity noticed in this bioassay)”.
In the case of `Fc1ccc(NC(=S)Nc2ccc(-c3ncn(-c4ccc(OC(F)(F)F)cc4)n3)cc2)cc1` [F72, 1-(4-Fluorophenyl)-3-(4-(1-(4-(trifluoromethoxy)phenyl)-1H-1,2,4-triazol-3-yl)phenyl)thiourea], the mortality at 50 µg/cm2 [1] is reported as 50 to 100%, the mortality at 200 ppm [3] is reported as 0% and the “YFM % Control (or Mortality) rating” value [4] is reported as “B (More than 0 - Less than 80)”.
Compound `CC(C)(C)c1ccccc1NC(=O)Nc1ccc(-c2ncn(-c3ccc(OC(F)(F)F)cc3)n2)cc1` [F38, 1-(2-(Tert-butyl)phenyl)-3-(4-(1-(4-(trifluoromethoxy)phenyl)-1H-1,2,4-triazol-3-yl)phenyl)urea] has a mortality at 50 µg/cm2 [1] of 0 to 50%, a mortality at 50 µg/cm2 [2] of 50 to 100% and a mortality at 200 ppm [3] of 0%. For the same compound, the “YFM % Control (or Mortality) rating” value [4] was “D (No activity noticed in this bioassay)”.
Compound `Cc1ccccc1-c1ccccc1NC(=O)NCCCc1ccc(-c2ncn(-c3ccc(OC(F)(F)F)cc3)n2)cc1` [FA1, 1-(2′-Methyl-[1,1′-biphenyl]-2-yl)-3-(3-(4-(1-(4-(trifluoromethoxy)phenyl)-1H-1,2,4-triazol-3-yl)phenyl)propyl)urea] has a mortality at 50 µg/cm2 [1] of 0%, a mortality at 50 µg/cm2 [2] of 50 to 100% and a mortality at 200 ppm [3] of 0%. For the same compound, the “YFM % Control (or Mortality) rating” value [4] was “A (80-100)”.
Compound `O=C(Nc1ccc(-c2ncn(-c3ccc(OC(F)(F)C(F)(F)F)cc3)n2)cc1)Nc1ccccc1-c1ccccc1` [F68, 1-([1,1′-biphenyl]-2-yl)-3-(4-(1-(4-(perfluoroethoxy)phenyl)-1H-1,2,4-triazol-3-yl)phenyl)urea] has a mortality at 50 µg/cm2 [1] of 50 to 100%, a mortality at 50 µg/cm2 [2] of 50 to 100% and a mortality at 200 ppm [3] of 0 to 80%. For the same compound, the “YFM % Control (or Mortality) rating” value [4] was “A (80-100)”.
With `CCc1ccccc1NC(=O)Nc1ccc(-c2ncn(-c3ccc(OC(F)(F)F)cc3)n2)cc1` [F46, 1-(2-Ethylphenyl)-3-(4-(1-(4-(trifluoromethoxy)phenyl)-1H-1,2,4-triazol-3-yl)phenyl)urea] the mortality at 50 µg/cm2 [1] was 50 to 100%, the mortality at 50 µg/cm2 [2] was 50 to 100% and the mortality at 200 ppm [3] was 0 to 80%. The “YFM % Control (or Mortality) rating” value [4] was “B (More than 0 - Less than 80)”.
`O=C(Nc1ccc(-c2ncn(-c3ccc(OC(F)(F)F)cc3)n2)cc1)Nc1ccccc1-c1ccccc1` [F31, 1-([1,1′-biphenyl]-2-yl)-3-(4-(1-(4-(trifluoromethoxy)phenyl)-1H-1,2,4-triazol-3-yl)phenyl)urea] was tested, and the mortality at 50 µg/cm2 [1] was 50 to 100%, the mortality at 50 µg/cm2 [2] was 50 to 100% and the mortality at 200 ppm [3] was 0 to 80%. For the same compound, the “YFM % Control (or Mortality) rating” value [4] was “A (80-100)”.
`CC(C)c1ccccc1N(C(=O)Nc1ccc(-c2ncn(-c3ccc(OC(F)(F)F)cc3)n2)cc1)C(N)=S` [F6, N-[2-(Propan-2-yl)phenyl]-N-(4-{1-[4-(trifluoromethoxy)phenyl]-1H-1,2,4-triazol-3-yl}phenyl)dicarbonimidothioic diamide] gave a mortality at 50 µg/cm2 [1] of 50 to 100%, a mortality at 50 µg/cm2 [2] of 50 to 100% and a mortality at 200 ppm [3] of 0 to 80%. The “YFM % Control (or Mortality) rating” value [4] was “A (80-100)”.
With `CC(C)c1ccccc1-c1ccccc1NC(=O)Nc1ccc(-c2ncn(-c3ccc(OC(F)(F)F)cc3)n2)cc1` [F63, 1-(2′-Isopropyl-[1,1′-biphenyl]-2-yl)-3-(4-(1-(4-(trifluoromethoxy)phenyl)-1H-1,2,4-triazol-3-yl)phenyl)urea] the mortality at 50 µg/cm2 [1] was 50 to 100%, the mortality at 50 µg/cm2 [2] was 50 to 100% and the mortality at 200 ppm [3] was 0 to 80%. The “YFM % Control (or Mortality) rating” value [4] was “D (No activity noticed in this bioassay)”.
